In assay [1] the target is T1, IRAK4 (Homo sapiens (Human), UniProt Q9NWZ3). Put plainly: IRAK4 Degradation HiBiT Assay. As to conditions: HiBiT-tagged Jurkat cells, 4 hrs; for Dmax: Jurkat; for DC50: read-out: Cellular IRAK4 HiBiT: DC50.
Target sequence in this assay (Q9NWZ3 whole entry): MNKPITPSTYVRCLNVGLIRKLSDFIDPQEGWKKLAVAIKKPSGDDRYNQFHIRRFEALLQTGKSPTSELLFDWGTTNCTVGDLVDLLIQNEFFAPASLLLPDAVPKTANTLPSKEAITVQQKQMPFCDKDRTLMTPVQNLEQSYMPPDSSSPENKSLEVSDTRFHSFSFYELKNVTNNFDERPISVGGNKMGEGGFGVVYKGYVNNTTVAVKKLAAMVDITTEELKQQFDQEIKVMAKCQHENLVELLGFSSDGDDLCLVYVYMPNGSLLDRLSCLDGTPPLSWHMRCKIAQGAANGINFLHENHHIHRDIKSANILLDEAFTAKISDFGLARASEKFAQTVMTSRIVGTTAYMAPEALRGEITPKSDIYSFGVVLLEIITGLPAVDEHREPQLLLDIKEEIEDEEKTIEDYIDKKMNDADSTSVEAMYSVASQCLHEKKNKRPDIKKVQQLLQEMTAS
Assay [2] has as its target T1, IRAK4. As to the kind of experiment: IRAK4 Biochemical HTRF Kinase Assay. As to conditions: read-out: IRAK4 HTRF biochemical: IC50. As to the method: IRAK4 Biochemical HTRF Kinase Assay
The binding capacities of certain bifunctional compounds of Formula (I) were determined using the CisBio HTRF KinEASE STK S1 Kit (#62ST1PEB, contains 5× Kinase buffer, 1× Detection Buffer, anti-phospho-serine/threonine-cryptate, Streptavidin-XL665, and STK-S1), which measures the phosphorylation of a biotinylated peptide substrate by IRAK4, according to the manufacturer's protocol. […] 2 μl of a reaction solution containing 5 μM STK-S1, 10 mM ATP, and 10 mM MgCl2 were added to each well to a final volume of 10 μl. Assay controls include wells containing kinase with no compound (DMSO only) and wells containing no kinase and no compound (DMSO only). The reactions were allowed to proceed at ambient temperature for 90 minutes. […] The plates were incubated for 60 minutes at ambient temperature and then read on an Envision Multilabel Reader (PerkinElmer). […] For IC50 determination, the compounds were tested at sixteen concentrations in duplicate and curve-fitting was performed by non-linear regression analysis using GraphPad Priam.
Target sequence in this assay (Q9NWZ3 whole entry, species assumed): as the sequence (Q9NWZ3 whole entry) above
A general note: In TR-FRET formats the signal depends on donor and acceptor labels being close together.

Setting [3] is: read-out: Cellular IRAK4 HiBiT: Dmax, Table 5, multiple runs.
[4] abbreviates: read-out: Cellular IRAK4 HiBiT: Dmax, Table 4.

Like-named read-outs stand apart in the source and are kept apart here.

As usually defined, the Dmax is the greatest extent of degradation seen. Usually DC50 stands for the concentration at which degradation of the target reaches its halfway point. A word on the IC50: it is the concentration that inhibits the measured activity by half.

For `CNc1cc(-c2ccc3cc(C#N)cnn23)ncc1-c1nnc(N2CCN(C3CCN(C(=O)c4ccc5c(c4)C(=O)N(C4CCC(=O)NC4=O)C5=O)CC3)CC2)s1` (stereo not drawn) [Example 98, 7-(5-(5-(4-(1-(2-(2,6-dioxopiperidin-3-yl)-1,3-dioxoisoindoline-5-carbonyl)piperidin-4-yl)piperazin-1-yl)-1,3,4-thiadiazol-2-yl)-4-(methylamino)pyridin-2-yl)pyrrolo[1,2-b]pyridazine-3-carbonitrile], at IRAK4 [1] (setting [3]), the Dmax is 109%. Besides, the 50% degradation concentration (DC50) at IRAK4 [1] (Table 5, multiple runs) stood at 6.58 nM. The IC50 at IRAK4 [2] (Table 5, multiple runs) was 0.3 nM.
Taken in the same sequence, the figures for `CNc1cc(-c2ccc3cc(C#N)cnn23)ncc1-c1nnc(N2CCC(N3CCN(C(=O)c4ccc5c(c4)C(=O)N(C4CCC(=O)NC4=O)C5=O)CC3)CC2)s1` (stereo not drawn) [Example 186, 7-(5-(5-(4-(4-(2-(2,6-dioxopiperidin-3-yl)-1,3-dioxoisoindoline-5-carbonyl)piperazin-1-yl)piperidin-1-yl)-1,3,4-thiadiazol-2-yl)-4-(methylamino)pyridin-2-yl)pyrrolo[1,2-b]pyridazine-3-carbonitrile] were 96%, 17.1 nM and 0.3 nM.
For `CNc1cc(-c2ccc3cc(C#N)cnn23)ncc1-c1nnc([C@H]2CC[C@H](N(C)C(=O)CCC(=O)N[C@H](C(=O)N3C[C@H](O)C[C@H]3C(=O)N[C@@H](C)c3ccccc3)C(C)(C)C)CC2)s1` [Example 174, N1-((1r,4S)-4-(5-(6-(3-cyanopyrrolo[1,2-b]pyridazin-7-yl)-4-(methylamino)pyridin-3-yl)-1,3,4-thiadiazol-2-yl)cyclohexyl)-N4—((S)-1-((2S,4R)-4-hydroxy-2-(((S)-1-phenylethyl)carbamoyl)pyrrolidin-1-yl)-3,3-dimethyl-1-oxobutan-2-yl)-N1-methylsuccinamide], the Dmax on IRAK4 [1] (setting [3]) came to 34%. For the same compound, the DC50 on IRAK4 [1] (Table 5, multiple runs) came to 1340 nM. For the same compound, at IRAK4 [2] (Table 5, multiple runs), the IC50 worked out at 0.6 nM.
`CNc1cc(-c2ccc3cc(C#N)cnn23)ncc1-c1nnc([C@H]2CC[C@H](NC(=O)C3CN(C4CCN(c5ccc6c(c5)C(=O)N(C5CCC(=O)NC5=O)C6=O)CC4)C3)CC2)s1` (stereo partly drawn) [Example 138, N-((1r,4r)-4-(5-(6-(3-cyanopyrrolo[1,2-b]pyridazin-7-yl)-4-(methylamino)pyridin-3-yl)-1,3,4-thiadiazol-2-yl)cyclohexyl)-1-(1-(2-(2,6-dioxopiperidin-3-yl)-1,3-dioxoisoindolin-5-yl)piperidin-4-yl)azetidine-3-carboxamide]: the Dmax on IRAK4 [1] (setting [3]) was found to be 116%. Further, the DC50 at IRAK4 [1] (Table 5, multiple runs) is 65.5 nM. In addition, the IC50 at IRAK4 [2] (Table 5, multiple runs) amounted to 0.8 nM.
For `CC(C)Nc1cc(-c2ccc3cc(C#N)cnn23)ncc1-c1nnc(N2CCN(C(=O)CN3CCC4(CC3)CN(c3ccc5c(c3)C(=O)N(C3CCC(=O)NC3=O)C5=O)C4)CC2)s1` (stereo not drawn) [Example 15, 7-(5-(5-(4-(2-(2-(2-(2,6-dioxopiperidin-3-yl)-1,3-dioxoisoindolin-5-yl)-2,7-diazaspiro[3.5]nonan-7-yl)acetyl)piperazin-1-yl)-1,3,4-thiadiazol-2-yl)-4-(isopropylamino)pyridin-2-yl)pyrrolo[1,2-b]pyridazine-3-carbonitrile], the Dmax at IRAK4 [1] (setting [4]) worked out at 81%; on IRAK4 [1] (setting [3]) it was 85%. The DC50 came to 82.7 nM on IRAK4 [1] (Table 4) and 86.9 nM at IRAK4 [1] (Table 5, multiple runs). In addition, the IC50 on IRAK4 [2] (Table 4) is 1 nM; at IRAK4 [2] (Table 5, multiple runs), 1 nM.
As to `CNc1cc(-c2ccc3cc(C#N)cnn23)ncc1-c1nnc(C2CCC(NC(=O)Cn3ccc(C(=O)N[C@H](C(=O)N4C[C@H](O)C[C@H]4C(=O)N[C@@H](C)c4ccc(-c5scnc5C)cc4)C(C)(C)C)n3)CC2)s1` (stereo partly drawn) [Example 125, 1-(2-(((1r,4S)-4-(5-(6-(3-cyanopyrrolo[1,2-b]pyridazin-7-yl)-4-(methylamino)pyridin-3-yl)-1,3,4-thiadiazol-2-yl)cyclohexyl)amino)-2-oxoethyl)-N—((S)-1-((2S,4R)-4-hydroxy-2-(((S)-1-(4-(4-methylthiazol-5-yl)phenyl)ethyl)carbamoyl)pyrrolidin-1-yl)-3,3-dimethyl-1-oxobutan-2-yl)-1H-pyrazole-3-carboxamide], the Dmax at IRAK4 [1] (setting [3]) stood at 116%. At IRAK4 [1] (Table 5, multiple runs), the DC50 worked out at 166 nM. Besides, the IC50 at IRAK4 [2] (Table 5, multiple runs) is 1.7 nM.
For the compound `CC(C)Nc1cc(-c2ccc3cc(C#N)cnn23)ncc1-c1nnc(N2CCN(CCCCc3cccc4c3CN(C3CCC(=O)NC3=O)C4=O)CC2)s1` (stereo not drawn) [Example 28, 7-(5-(5-(4-(4-(2-(2,6-dioxopiperidin-3-yl)-1-oxoisoindolin-4-yl)butyl)piperazin-1-yl)-1,3,4-thiadiazol-2-yl)-4-(isopropylamino)pyridin-2-yl)pyrrolo[1,2-b]pyridazine-3-carbonitrile], the Dmax at IRAK4 [1] (setting [4]) and on IRAK4 [1] (setting [3]) was 70% each time. Besides, the DC50 on IRAK4 [1] (Table 4) turned out to be 53 nM; at IRAK4 [1] (Table 5, multiple runs) it was 53.1 nM. The IC50 on IRAK4 [2] (Table 4) was 0.4 nM; on IRAK4 [2] (Table 5, multiple runs) it was 0.5 nM.
As for `CNc1cc(-c2ccc3cc(C#N)cnn23)ncc1-c1nnc(C23CCC(NC(=O)C4CN(C5CCN(c6ccc7c(c6)C(=O)N(C6CCC(=O)NC6=O)C7=O)CC5)C4)(CC2)CC3)s1` (stereo not drawn) [Example 103, N-(4-(5-(6-(3-cyanopyrrolo[1,2-b]pyridazin-7-yl)-4-(methylamino)pyridin-3-yl)-1,3,4-thiadiazol-2-yl)bicyclo[2.2.2]octan-1-yl)-1-(1-(2-(2,6-dioxopiperidin-3-yl)-1,3-dioxoisoindolin-5-yl)piperidin-4-yl)azetidine-3-carboxamide], the Dmax at IRAK4 [1] (setting [3]) turned out to be 99%. In addition, the DC50 on IRAK4 [1] (Table 5, multiple runs) came to 73.3 nM. Besides, the IC50 at IRAK4 [2] (Table 5, multiple runs) is 1 nM.
The corresponding values for `CNc1cc(-c2ccc3cc(C#N)cnn23)ncc1-c1nnc(N2CC3(CCN(C(=O)C[C@H](NC(=O)[C@@H]4C[C@@H](O)CN4C(=O)[C@@H](NC(=O)C4(F)CC4)C(C)(C)C)c4ccc(-c5scnc5C)cc4)CC3)C2)s1` [Example 178] are 113%, 42.8 nM and 0.7 nM.
Turning to `CNc1cc(-c2ccc3cc(C#N)cnn23)ncc1-c1nnc([C@H]2CC[C@H](NC(=O)CN3CCN(c4ccc5c(c4)C(=O)N(C4CCC(=O)NC4=O)C5=O)CC3)CC2)s1` (stereo partly drawn) [Example 65, N-((1r,4r)-4-(5-(6-(3-cyanopyrrolo[1,2-b]pyridazin-7-yl)-4-(methylamino)pyridin-3-yl)-1,3,4-thiadiazol-2-yl)cyclohexyl)-2-(4-(2-(2,6-dioxopiperidin-3-yl)-1,3-dioxoisoindolin-5-yl)piperazin-1-yl)acetamide], the Dmax at IRAK4 [1] (setting [4]) came out at 109%; on IRAK4 [1] (setting [3]) it was 111%. The DC50 on IRAK4 [1] (Table 4) was found to be 5.1 nM; at IRAK4 [1] (Table 5, multiple runs), 16.9 nM. The IC50 on IRAK4 [2] (Table 4) is 0.95 nM; at IRAK4 [2] (Table 5, multiple runs) it was 0.8 nM.
As to `CNc1cc(-c2ccc3cc(C#N)cnn23)ncc1-c1nnc(C23CCC(NC(=O)[C@H]4CC[C@H]4C(=O)N[C@H](C(=O)N4C[C@H](O)C[C@H]4C(=O)N[C@@H](C)c4ccc(-c5scnc5C)cc4)C(C)(C)C)(CC2)CC3)s1` (mixture of isomers) [Example 144, (1RS,2SR)—N1-(4-(5-(6-(3-cyanopyrrolo[1,2-b]pyridazin-7-yl)-4-(methylamino)pyridin-3-yl)-1,3,4-thiadiazol-2-yl)bicyclo[2.2.2]octan-1-yl)-N2—((S)-1-((2S,4R)-4-hydroxy-2-(((S)-1-(4-(4-methylthiazol-5-yl)phenyl)ethyl)carbamoyl)pyrrolidin-1-yl)-3,3-dimethyl-1-oxobutan-2-yl)cyclobutane-1,2-dicarboxamide], the Dmax on IRAK4 [1] (setting [3]) came out at 89%. For the same compound, the DC50 on IRAK4 [1] (Table 5, multiple runs) was 429 nM. Also, the IC50 on IRAK4 [2] (Table 5, multiple runs) turned out to be 1.5 nM.
With `CNc1cc(-c2ccc3cc(C#N)cnn23)ncc1-c1nnc(N2CCN(C3CCN(C(=O)Cc4ccc5c(c4)CN(C4CCC(=O)NC4=O)C5=O)CC3)CC2)s1` (stereo not drawn) [Example 100, 7-(5-(5-(4-(1-(2-(2-(2,6-dioxopiperidin-3-yl)-1-oxoisoindolin-5-yl)acetyl)piperidin-4-yl)piperazin-1-yl)-1,3,4-thiadiazol-2-yl)-4-(methylamino)pyridin-2-yl)pyrrolo[1,2-b]pyridazine-3-carbonitrile], the Dmax at IRAK4 [1] (setting [3]) was determined as 111%. Further, on IRAK4 [1] (Table 5, multiple runs), the DC50 came to 4.41 nM. Moreover, the IC50 on IRAK4 [2] (Table 5, multiple runs) was 0.4 nM.
With `CC(C)Nc1cc(-c2ccc3cc(C#N)cnn23)ncc1-c1nnc(N2CCN(C(=O)CCCCCCCNc3ccc4c(c3)C(=O)N(C3CCC(=O)NC3=O)C4=O)CC2)s1` (stereo not drawn) [Example 5, 7-(5-(5-(4-(8-((2-(2,6-dioxopiperidin-3-yl)-1,3-dioxoisoindolin-5-yl)amino)octanoyl)piperazin-1-yl)-1,3,4-thiadiazol-2-yl)-4-(isopropylamino)pyridin-2-yl)pyrrolo[1,2-b]pyridazine-3-carbonitrile], the Dmax on IRAK4 [1] (setting [4]) and at IRAK4 [1] (setting [3]) was 57% throughout. Further, the DC50 was found to be 84 nM on IRAK4 [1] (Table 4) and 71.2 nM on IRAK4 [1] (Table 5, multiple runs). The IC50 worked out at 3.8 nM at IRAK4 [2] (Table 4) and 3.9 nM on IRAK4 [2] (Table 5, multiple runs).

Values taken from patent US12528814B2, “Bifunctional degraders of interleukin-1 receptor-associated kinases and therapeutic use thereof” (NURIX THERAPEUTICS, INC., priority 2020, dated 2026).
